Laboratory results reported in patent publication US20100233199A1, “MODULATORS OF HYPERSENSITIVITY REACTIONS” (priority 2007, published 2010).

What was measured:
skin mast cells = format: in vivo, mice; conditions: for systemic effects of local (ear) treatment: mouse, in vivo
Procedure: Left ears were treated with DMSO and right ears with 0.2% MDD1 or 0.1% dexamethasone in DMSO twice daily for four days. Mice were then sensitised with anti DNP-20 ul IgE antibody administered to the ears by intradermal injection using an insulin syringe. Local mast cell activation was measured by dye recovery in response to FcεRI crosslink 24 hours post-injection: 100 μg DNP-albumin/1% Evans blue in PBS was injected intravenously and ear biopsies taken after 30 minutes were incubated at 80° C. in 1 ml formamide for 2 hours. The absorbance supernatant was measured at 620 nm.

[1] = Peptide solubility observation; format: physicochemical
RBL-2H3 cells [2] = assay: RBL-2H3 degranulation assay (β-hexosaminidase release); format: cell-based, rat; conditions: for degranulation upon IgE receptor crosslinking: peptide 0.01 mM pre-treatment overnight, IgE coating + DNP/albumin crosslinking, FIG. 7
Procedure: (§1) Mast cell degranulation was measured using the β-hexosaminidase release method. RBL-2H3 cells were grown in F15 medium supplemented with 10% of fetal calf serum (FCS) and antibiotics. Cells were carefully detached from the culture flask with a cell scraper and plated at a concentration of 5×10^5 cells/well in a 96 well microtiter plate and incubated in the presence of MDD1 or SCR peptide overnight. RBL-2H3 cells were then incubated with 500 ng/ml anti-DNP IgE mb (SIGMA) for 2 hours at 37° C. After washing, cells were stimulated with 100 ng/ml DNP/albumin for 30 minutes. For non IgE specific stimulation 1 nM Ionomycin only was added to the cultures for 30 minutes. Supernatants were then collected and cell lysates were prepared using 0.1% Triton X-100. Lysate and supernatant samples (10 μl) were transferred into 96-well plates and 50 μl mM 1 mM p-nitrophenyl-N-acetyl-β-D-glucopyranoside in 50 mM citrate buffer was added to each well and incubated for 1 hour at 37° C. in the dark. The reaction was stopped by adding 100 μl 0.1M NaHCO3/0.1M Na2CO3 into each well and the absorbance measured at 405 nm. Percentage degranulation was calculated by the following formula: OD supernatant/(OD supernatant+OD lysate)×100.
as §1, with “MPX741 peptide” for “MDD1”, “MPX742” for “SCR”, “(100)” for “(10 μl)”, “μl” for “μl mM”, “formula:” for “formula: OD supernatant/(OD supernatant+OD lysate)×100.”
OD supernatant/(OD supernatant+OD lysate)×100.

OVA-sensitised mice [3] = assay: OVA-induced asthma model, lung resistance after β-methacholine; format: in vivo, C57BL/6 mice; conditions: 6 hours prior to each OVA challenge, compared to control peptide
Procedure: (§2) C57BL/6 mice were sensitised with 10 ug ovalbumin antigen (OVA) in saline intraperitoneally seven times given on alternate days. 40 days after first sensitisation dose, mice were challenged with intranasal OVA (20 ul in each nostril of a solution of 5 mg/ml of OVA in saline). Mice received two additional challenges of intranasal OVA at days 3 and 6 after the first challenge with OVA. Control mice were sensitised with OVA, but challenged intranasally with saline. Groups of mice receiving parenteral MDD1 treatment were intravenously injected with 8 mg/Kg of MDD1 three times, 6 hours prior to each OVA challenge. Nebulised MDD1 or MDDscram (SCR) peptide was given 6 hours prior to each OVA challenge by nebulising 5 mice per cage with 8 ml of 1 mg/ml MDD1 or control peptide.
Functional lung studies and organ collection was performed one day after the final OVA challenge. Lung resistance was measured in anesthetized mice after increasing doses of β-methacholine. […] Lung resistance was measured by plethysmography, using an apparatus and software supplied by Buxco. Lung resistance values are expressed as an average of each group of mice for each methacholine dose. For each mouse, individual values were calculated by averaging collected data (every 5 seconds during 5 minutes) for each methacholine dose.

OVA-sensitised mice [4] = assay: OVA-induced asthma model, inflammatory response (eosinophils, BAL cells, cytokine expression, serum IgE); format: in vivo, C57BL/6 mice
Procedure: as §2
Blood smears were prepared and the percentage of eosinophils was calculated by morphological criteria after May-Grünwald Giemsa-staining. Bronchoalveolar lavage (BAL) was recovered by lavaging airways twice with 1 ml HANKS solution via the tracheal cannula while gently massaging the thorax. Lung lower left lobe was collected and homogenised. Cells were filtered through a cell strainer and cell suspensions prepared in staining medium (PBS with 1% FCS). BAL and lung samples were incubated with anti-CD11b, anti-CCR3, anti-CD4 and antiB220 mab markers for flow cytometric analysis using a FACScan equipped with CellQuest software.
Lung upper right lobe was collected and homogenised on ice. Total RNA was prepared using Trizol (GIBCO, Invitrogen). Purity of the RNA was determined by A260/A280. 5 μg RNA for each sample was reverse transcribed into cDNA using Omniscript RT kit (Qiagen). Cytokine specific predesigned TaqMan gene expression assay (Applied Biosystems) were used to measure cytokine relative gene expression following the manufacturer's instructions (Applied Biosystems). Each experimental sample was assayed in three replicates. β-actin specific primers were used as an internal standard. Negative controls with blank cDNA template were run with every assay to assess specificity. The cycling conditions were as follows: one cycle at 95° C. for 10 minutes, followed by 40 cycles of PCR amplification, each consisting of 95° C. for 15 seconds and 60° C. for 45 seconds. Sequence Detection Software (SDS v 1.2.2, Applied Biosystems) was used for analysis of the results. A threshold cycle (Ct) was determined for each sample. PCR assays showing non-specific products at the end point were excluded from further data analysis. Relative quantification using comparative Ct method was used for analysing results. The results were expressed as relative fold change over the values for non-allergic mice.
OVA-specific IgE detection: 96-well maxisorp plates were coated overnight at 4° C. with anti-mouse IgE. 2% skim milk was used for unspecific binding blockade. Prediluted serum samples were incubated overnight, plates were loaded with OVA-biotin for 1.5 hours and a colometric reaction was developed using ABTS following manufacture's instructions. For OVA-specific IgG, 96-well maxisorp microtiter plates were pretreated with 0.2% glutaraldehyde and were coated with 10 μg/ml of OVA in 10 mM carbonate buffer (pH 9.6) for 3 hours at 37° C. Wells were blocked with 2% BSA in 10 mM carbonate buffer (pH 9.6) overnight at 4° C. in a humidified chamber. Serum samples were incubated at 37° C. for 1 hour. Peroxidase-conjugated […] followed by ABTS was used to develop the colorimetric reaction. Optical density was read in a microplate reader using a 405 nm filter. Levels of IgE and IgG were expressed as OD units.

RBL-2H3 cells [5] = assay: MDD1 uptake by RBL-2H3 cells (FACS, streptavidin-APC); format: cell-based, rat; conditions: biotinylated MDD1 0.001, 0.01 and 0.1 mM overnight; intracellular FACS staining with streptavidin APC; FIG. 6
Procedure: RBL-2H3 cells were grown in F15 medium supplemented with 10% of fetal calf serum (FCS) and antibiotics. Cells were carefully detached from the culture flask with a cell scraper and plated at a concentration of 5×10^5 cells/well in a 96 well microtiter plate. Cells were incubated with various concentrations of biotinylated MDD1 (0.1, 0.01 and 0.001 mM) overnight. Biotinylated MDD1 uptake by live cells was detected using streptavidin-APC in single-cell suspensions previously treated with a combined cytofix/cytopenn fixation and penneabilization solution kit following manufacture's instructions (Becton Dickinson, BD). Cells were then analysed using a BD FACscan flow cytometer.

## C[C@@H]1C[C@H]2[C@@H]3CCC4=CC(=O)C=C[C@]4(C)[C@@]3(F)[C@@H](O)C[C@]2(C)[C@@]1(O)C(=O)CO [dexamethasone, reference compound]
Skin mast cells
  systemic effects of local (ear) treatment: systemic immunosuppresion

## Ac-PQDQGWNAEITLQMVQY-NH2 [MPX743, PQDQGWNAEITLQMVQY]
[1]
  solubility: poorly soluble

## LEPPVKLKELHFSNMKTVD (listed as Homo sapiens) [MPX742]
RBL-2H3 cells [2]; MPX741, MPX742 0.01 mM pre-treatment, IgE coating + crosslinking, FIG. 11
  degranulation following IgE receptor crosslink: significantly reduced degranulation

## EALPGEDCAFRKDANRLVEY (listed as Homo sapiens) [MDD1scram, control peptide, reference compound]
RBL-2H3 cells [2]
  degranulation upon IgE receptor crosslinking: only a minor inhibitory effect

## Ac-RALYDNVPECAEELAFRKGD-NH2 [MDD1]
OVA-sensitised mice [3]; intravenously 8 mg/kg, FIG. 8A
  Lung resistance (RL) following increasing doses of β-methacholine: reduced
OVA-sensitised mice [3]; nebulised intranasal route 1 mg/ml, FIG. 8B
  Lung resistance (RL) following increasing doses of β-methacholine: reduced
OVA-sensitised mice [4]; OVA-sensitized mice, FIG. 9
  overall inflammatory response in the asthmatic reaction: reduced
OVA-sensitised mice [4]; allergic mice compared to control treated mice, FIG. 9A
  eosinophilia in blood: decreased
OVA-sensitised mice [4]; allergic mice compared to control treated mice, FIG. 9B
  cellularity in broncho-alveolar lavages: decreased
OVA-sensitised mice [4]; allergic mice compared to control treated mice, FIG. 9C
  cytokine production in inflammatory foci (TNF expression): decreased
OVA-sensitised mice [4]; allergic mice compared to control treated mice, FIG. 9D
  levels of antigen-specific IgE in serum: decreased
OVA-sensitised mice [4]; dexamethasone 2 mg/kg i.p., some of the parameters, FIG. 9
  comparison with dexamethasone treatment in the inflammatory parameters tested: outperformed dexamethasone treatment
RBL-2H3 cells [5]
  MDD1 peptide uptake by live cells: All cells were positive for MDD1 peptide and the levels were observed to increase with peptide concentration
Skin mast cells; 0.2% MDD1 peptide/DMSO topically to ear, twice daily for four days, compared to contralateral ears treated with DMSO only, FIG. 10
  mast cell activation following IgE receptor crosslink, by dye extravasation: reduced levels of activation
Skin mast cells
  systemic effects of local (ear) treatment: minimal systemic effects
RBL-2H3 cells [2]; non IgE specific stimulation (ionomycin), data not shown
  mast cell activation after non-specific stimulation: inhibit mast cell activation
RBL-2H3 cells [2]
  degranulation upon IgE receptor crosslinking: inhibit degranulation
